Assays:
[1] = target: PRMT5/MEP50 protein complex (Homo sapiens (Human), UniProt O14744); test: PRMT5 biochemical assay (3H-SAM methylation of H4(1-21) peptide, filter plate scintillation); conditions: 10 nM PRMT5/MEP50 complex, 200 nM H4(1-21) peptide, 1 uM SAM, 25 minute incubation at room temperature
Procedure, shortened: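 Scintillation read-out: after 25 min at room temperature and a TCA stop, tritiated H4(1-21) product (peptide 200 nM) is caught on a filter plate. Reaction holds 10 nM PRMT5/MEP50 and 1 uM 3H-labelled plus cold SAM in 50 mM Tris pH 8.5 with MgCl2, EDTA and TCEP. IC50 values come from a 4-parameter dose-response fit.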

[2] = test system: A549 lung adenocarcinoma cells; test: A549 proliferation assay (Cell Titer Glo); type: cell-based; conditions: 7 days with compound, cell viability by Cell Titer Glo (ATP)
Protocol: A549 lung adenocarcinoma cells (American Type Culture Collection) were maintained in DMEM growth media (Life Technologies) supplemented with 10% v/v heat inactivated fetal bovine serum (Sigma) and cultured at 37° C., 5% CO2. Exponentially growing A549 cells were plated in 96-well black tissue culture treated plates (Corning) at a density of […] in a volume of 100 μl culture media and allowed to adhere overnight at 37° C., 5% CO2. The following day, compound plates were prepared by making nine-point 3.3-fold dilutions in DMSO with a top concentration of 10 mM. Compounds were further diluted in culture media and 11 μl was added to the cells (final top assay concentration was 10 μM and DMSO was 0.2%). Cells were incubated with compound at 37° C., 5% CO2 for 7 days with media and compound replacement on day 4. Cell viability was assayed on Day 7 by adding 100 μl Cell Titer Glo (Promega) reagent to the plate to measure the amount of ATP present in the cells. Luminescence was read using the Envision 2104 Multilabel Reader (Perkin Elmer). The 50% inhibitory concentration (IC50) was determined using a 4-parameter fit model normalized to the DMSO control in dose response.

Chain of PRMT5/MEP50 protein complex (O14744 other isoform, or with tags, fused parts or gaps): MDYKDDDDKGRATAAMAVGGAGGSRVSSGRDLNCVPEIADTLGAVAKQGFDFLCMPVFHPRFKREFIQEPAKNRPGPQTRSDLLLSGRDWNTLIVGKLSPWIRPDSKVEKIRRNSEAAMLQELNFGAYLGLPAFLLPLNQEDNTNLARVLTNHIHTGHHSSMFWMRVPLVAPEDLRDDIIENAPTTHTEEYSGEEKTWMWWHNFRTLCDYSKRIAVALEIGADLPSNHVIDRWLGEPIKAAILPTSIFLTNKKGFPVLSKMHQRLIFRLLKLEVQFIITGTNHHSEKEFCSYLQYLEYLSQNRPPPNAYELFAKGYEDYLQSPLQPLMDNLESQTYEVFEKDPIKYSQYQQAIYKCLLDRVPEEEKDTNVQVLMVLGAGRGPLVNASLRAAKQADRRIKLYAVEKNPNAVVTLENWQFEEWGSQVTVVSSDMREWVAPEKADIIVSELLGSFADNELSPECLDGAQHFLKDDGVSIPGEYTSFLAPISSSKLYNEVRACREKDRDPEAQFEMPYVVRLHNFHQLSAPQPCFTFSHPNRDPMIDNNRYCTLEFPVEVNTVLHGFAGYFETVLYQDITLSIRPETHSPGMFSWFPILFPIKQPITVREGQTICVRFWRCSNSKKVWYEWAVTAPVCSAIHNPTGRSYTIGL
Chain of PRMT5/MEP50 protein complex (Q9BQA1 whole entry partner): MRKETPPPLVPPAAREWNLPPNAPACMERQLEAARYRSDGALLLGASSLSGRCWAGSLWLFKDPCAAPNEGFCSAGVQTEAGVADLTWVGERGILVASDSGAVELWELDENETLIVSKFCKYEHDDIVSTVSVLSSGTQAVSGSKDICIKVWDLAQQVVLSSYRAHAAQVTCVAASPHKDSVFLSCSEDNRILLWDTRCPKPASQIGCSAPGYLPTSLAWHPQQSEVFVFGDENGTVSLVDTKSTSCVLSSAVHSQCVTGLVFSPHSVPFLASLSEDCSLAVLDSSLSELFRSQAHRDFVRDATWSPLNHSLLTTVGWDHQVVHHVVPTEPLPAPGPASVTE

| Structure (SMILES) | IC50 [1] [nM] | IC50 ([2]; Homo sapiens, 168 h) [nM] | IC50 ([2]; Homo sapiens, A549, 168 h) [nM] | IC50 [2] [nM] |
| --- | --- | --- | --- | --- |
| Cc1ncnc2c1ccn2[C@@H]1C[C@H](Oc2ccc(Cl)cc2CCN)[C@@H](O)[C@H]1O [Example 146, (1S,2S,3S,5R)-3-(2-(2-aminoethyl)-4-chlorophenoxy)-5-(4-methyl-7H-pyrrolo[2,3-d]pyrimidin-7-yl)cyclopentane-1,2-diol] | 27 | 7070 |  |  |
| Cc1ncnc2c1ccn2[C@@H]1C[C@H](Oc2cccc3c2CNCCO3)[C@@H](O)[C@H]1O [Example 164, (1S,2S,3R,5S)-3-(4-methyl-7H-pyrrolo[2,3-d]pyrimidin-7-yl)-5-((2,3,4,5-tetrahydrobenzo[f][1,4]oxazepin-6-yl)oxy)cyclopentane-1,2-diol] | 4 |  | 3860 |  |
| Cc1ncnc2c1ccn2[C@@H]1C[C@H]([C@](C)(O)c2ccc(F)cc2)[C@@H](O)[C@H]1O [Example 19, (1S,2R,3S,5R)-3-[(1 S)-1-(4-fluorophenyl)-1-hydroxyethyl]-5-(4-methyl-7H-pyrrolo[2,3-d]pyrimidin-7-yl)cyclopentane-1,2-diol] | 64 |  | 1070 |  |
| Cc1ncnc2c1ccn2[C@@H]1C[C@H]([C@H](O)c2ccc(F)c(F)c2)[C@@H](O)[C@H]1O [Example 3, (1S,2R,3R,5R)-3-[(S)-(3,4-difluorophenyl) (hydroxy)methyl]-5-(4-methyl-7H-pyrrolo[2,3-d]pyrimidin-7-yl)cyclopentane-1,2-diol] | 32 | 1100 |  |  |
| Cc1cc2c(c(O[C@H]3C[C@@H](n4cc(F)c5c(N)ncnc54)[C@H](O)[C@@H]3O)c1)CNCC2 [Example 105, (1S,2S,3R,5S)-3-(4-amino-5-fluoro-7H-pyrrolo[2,3-d]pyrimidin-7-yl)-5-((6-methyl-1,2,3,4-tetrahydroisoquinolin-8-yl)oxy)cyclopentane-1,2-diol] | 1 |  | 383 |  |
| Cc1ncnc2c1c(F)cn2[C@@H]1C[C@H](Oc2cc(C#N)cc3c2CNCC3)[C@@H](O)[C@H]1O [Example 119, 8-(((1S,2S,3S,4R)-4-(5-fluoro-4-methyl-7H-pyrrolo[2,3-d]pyrimidin-7-yl)-2,3-dihydroxycyclopentyl)oxy)-1,2,3,4-tetrahydroisoquinoline-6-carbonitrile] | 1 |  | 556 |  |
| COc1cc(O[C@H]2C[C@@H](n3ccc4c(C)ncnc43)[C@H](O)[C@@H]2O)c2c(c1F)CCNC2 [Example 198, (1S,2S,3S,5R)-3-((5-fluoro-6-methoxy-1,2,3,4-tetrahydroisoquinolin-8-yl)oxy)-5-(4-methyl-7H-pyrrolo[2,3-d]pyrimidin-7-yl)cyclopentane-1,2-diol] | 1 |  | 3820 |  |
| Cc1cc2c(c(O[C@H]3C[C@@H](n4cc(Cl)c5c(N)ncnc54)[C@H](O)[C@@H]3O)c1)CNCC2 [Example 129, (1S,2S,3R,5S)-3-(4-amino-5-chloro-7H-pyrrolo[2,3-d]pyrimidin-7-yl)-5-((6-methyl-1,2,3,4-tetrahydroisoquinolin-8-yl)oxy)cyclopentane-1,2-diol] | 1 |  | 1040 |  |
| N#Cc1cc2c(c(O[C@H]3C[C@@H](n4cc(Br)c5c(N)ncnc54)[C@H](O)[C@@H]3O)c1)CNCC2 [Example 120, 8-(((1S,2S,3S,4R)-4-(4-amino-5-bromo-7H-pyrrolo[2,3-d]pyrimidin-7-yl)-2,3-dihydroxycyclopentyl)oxy)-1,2,3,4-tetrahydroisoquinoline-6-carbonitrile] | 1 |  | 442 |  |
| Cc1ncnc2c1ccn2[C@@H]1C[C@H](Oc2cccc3c2CNC[C@H](C)O3)[C@@H](O)[C@H]1O [Example 210, (1S,2S,3S,5R)-3-(((S)-2-methyl-2,3,4,5-tetrahydrobenzo[f][1,4]oxazepin-6-yl)oxy)-5-(4-methyl-7H-pyrrolo[2,3-d]pyrimidin-7-yl)cyclopentane-1,2-diol] | 1 |  | 1550 |  |
| Cc1ncnc2c1ccn2[C@@H]1C[C@H](Oc2cc(C#N)cc3c2CNCCO3)[C@@H](O)[C@H]1O [Example 202, 6-(((1S,2S,3S,4R)-2,3-dihydroxy-4-(4-methyl-7H-pyrrolo[2,3-d]pyrimidin-7-yl)cyclopentyl)oxy)-2,3,4,5-tetrahydrobenzo[f][1,4]oxazepine-8-carbonitrile] | 1 |  | 1760 |  |
| Cc1nc(N)nc2c1ccn2[C@@H]1C[C@H]([C@H](O)c2ccc(F)c(F)c2)[C@@H](O)[C@H]1O [Example 48, (1R,2S,3R,5R)-3-(2-amino-4-methyl-7H-pyrrolo[2,3-d]pyrimidin-7-yl)-5-[(S)-(3,4-difluorophenyl)(hydroxy)methyl]cyclopentane-1,2-diol] | 5 |  | 192 |  |
| Cc1ncnc2c1ccn2[C@@H]1C[C@H]([C@H](O)c2ccc(Cl)c(F)c2)[C@@H](O)[C@H]1O [Example 160, (1S,2R,3R,5R)-3-((S)-(4-chloro-3-fluorophenyl)(hydroxy)methyl)-5-(4-methyl-7H-pyrrolo[2,3-d]pyrimidin-7-yl)cyclopentane-1,2-diol] | 9 |  | 405 |  |
| Cc1ncnc2c1ccn2[C@@H]1C[C@H](Oc2cc(C(F)(F)F)cc3c2CNCC3)[C@@H](O)[C@H]1O [Example 90, (1S,2S,3R,5S)-3-(4-methyl-7H-pyrrolo[2,3-d]pyrimidin-7-yl)-5-((6-(trifluoromethyl)-1,2,3,4-tetrahydroisoquinolin-8-yl)oxy)cyclopentane-1,2-diol] | 2 |  | 948 |  |
| Cc1ncnc2c1ccn2[C@@H]1C[C@H](Oc2cccc3c2CC(N)CO3)[C@@H](O)[C@H]1O (single isomer, unassigned) [Example 188] | 4 |  | 6470 |  |
| Cc1ncnc2c1ccn2[C@@H]1C[C@H](Oc2cc(C(F)F)c(F)c3c2CNCC3C)[C@@H](O)[C@H]1O (stereo partly drawn) [Example 212, (1S,2S,3S,5R)-3-((6-(difluoromethyl)-5-fluoro-4-methyl-1,2,3,4-tetrahydroisoquinolin-8-yl)oxy)-5-(4-methyl-7H-pyrrolo[2,3-d]pyrimidin-7-yl)cyclopentane-1,2-diol] | 1 |  |  | 2 |
| Cc1ncnc2c1ccn2[C@@H]1C[C@H](Oc2ccc(F)c3c2CNCC3)[C@@H](O)[C@H]1O [Example 84, (1S,2S,3S,5R)-3-((5-fluoro-1,2,3,4-tetrahydroisoquinolin-8-yl)oxy)-5-(4-methyl-7H-pyrrolo[2,3-d]pyrimidin-7-yl)cyclopentane-1,2-diol] | 2 |  | 500 |  |
| Nc1ncnc2c1c(F)cn2[C@@H]1C[C@H](Oc2cc(C(F)(F)F)cc3c2CNCC3)[C@@H](O)[C@H]1O [Example 104, (1S,2S,3R,5S)-3-(4-amino-5-fluoro-7H-pyrrolo[2,3-d]pyrimidin-7-yl)-5-((6-(trifluoromethyl)-1,2,3,4-tetrahydroisoquinolin-8-yl)oxy)cyclopentane-1,2-diol] | 1 |  | 460 |  |
| Cc1ncnc2c1ccn2[C@@H]1C[C@H](Oc2ccc(F)c3c2C(C)NCC3)[C@@H](O)[C@H]1O (single isomer, unassigned) [Example 213] | 1 |  | 1200 |  |
| Cc1ncnc2c1ccn2[C@@H]1C[C@H]([C@H](O)c2cc(F)c(F)c(F)c2)[C@@H](O)[C@H]1O [Example 13, (1S,2R,3R,5R)-3-[(S)-hydroxy(3,4,5-trifluorophenyl)methyl]-5-(4-methyl-7H-pyrrolo[2,3-d]pyrimidin-7-yl)cyclopentane-1,2-diol] | 16 | 971 |  |  |
| COc1nc(O[C@H]2C[C@@H](n3ccc4c(C)ncnc43)[C@H](O)[C@@H]2O)c2c(c1F)CCNC2 [Example 191, (1S,2S,3S,5R)-3-((4-fluoro-3-methoxy-5,6,7,8-tetrahydro-2,7-naphthyridin-1-yl)oxy)-5-(4-methyl-7H-pyrrolo[2,3-d]pyrimidin-7-yl)cyclopentane-1,2-diol] | 1 |  | 7020 |  |
| Cc1ncc2c(F)cn([C@@H]3C[C@H](Oc4cc(C#N)cc5c4CNCC5)[C@@H](O)[C@H]3O)c2n1 [Example 173, 8-(((1S,2S,3S,4R)-4-(5-fluoro-2-methyl-7H-pyrrolo[2,3-d]pyrimidin-7-yl)-2,3-dihydroxycyclopentyl)oxy)-1,2,3,4-tetrahydroisoquinoline-6-carbonitrile] | 3 |  | 3570 |  |
| CC1CNCc2c(O[C@H]3C[C@@H](n4cc(F)c5c(N)ncnc54)[C@H](O)[C@@H]3O)cc(C(F)F)c(F)c21 (stereo partly drawn) [Example 216, (1S,2S,3R,5S)-3-(4-amino-5-fluoro-7H-pyrrolo[2,3-d]pyrimidin-7-yl)-5-((6-(difluoromethyl)-5-fluoro-4-methyl-1,2,3,4-tetrahydroisoquinolin-8-yl)oxy)cyclopentane-1,2-diol] | 1 |  |  | 6 |
| Nc1ncnc2c1c(Br)cn2[C@@H]1C[C@H](Oc2ccc(F)c3c2CNCC3)[C@@H](O)[C@H]1O [Example 134, (1S,2S,3R,5S)-3-(4-amino-5-bromo-7H-pyrrolo[2,3-d]pyrimidin-7-yl)-5-((5-fluoro-1,2,3,4-tetrahydroisoquinolin-8-yl)oxy)cyclopentane-1,2-diol] | 1 |  | 640 |  |
